Reference: PubChem BioAssay AID248 (DTP/NCI, 2004)
Where “and” joins values, the source holds several entries; their conditions need not be identical. Equal entries are not always repeated. Inconclusive results and toxic doses are left out. Rule as the data show it: active = T/C of 150% or more; inactive = T/C below 125%.

Test system: L1210 leukemia ip in BDF1 mice, survival T/C
Experiment: NCI In Vivo Anticancer Drug Screen. Data for tumor model L1210 Leukemia (intraperitoneal) in B6D2F1 (BDF1) mice
Conditions: endpoint: mean survival time, higher = longer survival
Outline: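 Tumor was transplanted into mice, which were then dosed with test compound or vehicle alone. Survival was recorded for each group, and the treated figure was expressed relative to the control figure.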

[1] = dose: 100.0 mg/kg/injection, schedule: Q04DX003 (ip), vehicle: Klucel (hydroxypropylcellulose) (HPC)
[2] = dose: 200.0 mg/kg/injection, schedule: Q04DX003 (ip), vehicle: Klucel (hydroxypropylcellulose) (HPC)
[3] = dose: 100.0 mg/kg/injection, schedule: Q01DX009 (ip), vehicle: saline with Tween-80
[4] = dose: 100.0 mg/kg/injection, schedule: Q04DX003 (ip), vehicle: saline with Tween-80
[5] = dose: 200.0 mg/kg/injection, schedule: Q01DX009 (ip), vehicle: saline with Tween-80
[6] = dose: 200.0 mg/kg/injection, schedule: Q04DX003 (ip), vehicle: saline with Tween-80
[7] = dose: 400.0 mg/kg/injection, schedule: Q01DX009 (ip), vehicle: saline with Tween-80
[8] = dose: 400.0 mg/kg/injection, schedule: Q04DX003 (ip), vehicle: saline with Tween-80
[9] = dose: 400.0 mg/kg/injection, schedule: Q04DX003 (ip), vehicle: Klucel (hydroxypropylcellulose) (HPC)

Measured: T/C

O=CNO
inactive: dose: 50.0 mg/kg/injection, schedule: Q01DX001 (ip), vehicle: water 100 % of control | dose: 100.0 mg/kg/injection, schedule: Q01DX001 (ip), vehicle: water 110 % of control | dose: 200.0 mg/kg/injection, schedule: Q01DX001 (ip), vehicle: water 96 % of control | dose: 400.0 mg/kg/injection, schedule: Q01DX001 (ip), vehicle: water 107 % of control

c1ccc([Si](c2ccccc2)(c2ccccc2)c2ccc(-c3ccc([Si](c4ccccc4)(c4ccccc4)c4ccccc4)cc3)cc2)cc1
inactive: dose: 200.0 mg/kg/injection, schedule: Q01DX001 (ip), vehicle: saline with Tween-80 90 % of control | dose: 400.0 mg/kg/injection, schedule: Q01DX001 (ip), vehicle: saline with Tween-80 88 % of control

COC(=O)C1CC2c3[nH]c4ccccc4c3CCN2C1 (stereo unspecified)
inactive: [1] 94 % of control | [2] 92 % of control

O=[N+]([O-])c1cc2ccccc2o1
inactive: dose: 50.0 mg/kg/injection, schedule: Q04DX002 (ip), vehicle: Klucel (hydroxypropylcellulose) (HPC) 88 % of control | dose: 100.0 mg/kg/injection, schedule: Q04DX002 (ip), vehicle: Klucel (hydroxypropylcellulose) (HPC) 97 % of control | dose: 200.0 mg/kg/injection, schedule: Q04DX002 (ip), vehicle: Klucel (hydroxypropylcellulose) (HPC) 93 % of control

O=C(O)c1cccc(Cl)c1F
inactive: dose: 50.0 mg/kg/injection, schedule: Q04DX002 (ip), vehicle: saline with Tween-80 97 % of control | dose: 100.0 mg/kg/injection, schedule: Q04DX002 (ip), vehicle: saline with Tween-80 97 % of control and 107 % of control | dose: 200.0 mg/kg/injection, schedule: Q04DX002 (ip), vehicle: saline with Tween-80 97 % of control

NC(=O)c1nnc(-c2ccccn2)[nH]c1=O
inactive: dose: 100.0 mg/kg/injection, schedule: Q01DX001 (ip), vehicle: Klucel (hydroxypropylcellulose) (HPC) 93 % of control

CCN(CC)CCOC(=O)c1ccc(OCCOc2ccc(C(C)(C)CC(C)(C)C)cc2)c([N+](=O)[O-])c1
inactive: dose: 100.0 mg/kg/injection, schedule: Q04DX003 (ip), vehicle: saline sonified 96 % of control | dose: 200.0 mg/kg/injection, schedule: Q04DX003 (ip), vehicle: saline sonified 87 % of control | dose: 400.0 mg/kg/injection, schedule: Q04DX003 (ip), vehicle: saline sonified 98 % of control

C/C=C1\CN(C)[C@H]2Cc3c([nH]c4ccccc34)[C@@H](c3cc4[nH]c5c(c4cc3OC)CCN3C[C@H]4C[C@H](CC)[C@H]3[C@@]5(C(=O)OC)C4)C[C@H]1C2C(=O)OC (stereo partly specified)
inactive: dose: 30.0 mg/kg/injection, schedule: Q01DX Z (ip), vehicle: water 106 % of control | dose: 45.0 mg/kg/injection, schedule: Q01DX Z (ip), vehicle: water 100 % of control and 102 % of control | dose: 45.0 mg/kg/injection, schedule: Q02DX Z (ip), vehicle: water 101 % of control | dose: 60.0 mg/kg/injection, schedule: Q01DX Z (ip), vehicle: water 96 % of control and 101 % of control | dose: 60.0 mg/kg/injection, schedule: Q02DX Z (ip), vehicle: water 104 % of control | dose: 70.0 mg/kg/injection, schedule: Q02DX Z (ip), vehicle: water 102 % of control | dose: 75.0 mg/kg/injection, schedule: Q01DX Z (ip), vehicle: water 100 % of control | dose: 90.0 mg/kg/injection, schedule: Q01DX Z (ip), vehicle: water 100 % of control

O=C1CCCCC1Oc1ccccc1 (stereo unspecified)
inactive: [3] 95 % of control | [4] 95 % of control | [5] 101 % of control | [6] 98 % of control | [7] 86 % of control | [8] 93 % of control

Cc1c(Cl)c(C)c(Sc2c(C)c(Cl)c(C)c(Br)c2O)c(O)c1Br
inactive: dose: 100.0 mg/kg/injection, schedule: Q01DX001 (ip), vehicle: other 87 % of control | dose: 100.0 mg/kg/injection, schedule: Q04DX003 (ip), vehicle: other 100 % of control | dose: 200.0 mg/kg/injection, schedule: Q01DX001 (ip), vehicle: other 88 % of control | dose: 200.0 mg/kg/injection, schedule: Q04DX003 (ip), vehicle: other 107 % of control | dose: 400.0 mg/kg/injection, schedule: Q01DX001 (ip), vehicle: other 93 % of control | dose: 400.0 mg/kg/injection, schedule: Q04DX003 (ip), vehicle: other 113 % of control

CCOC(=O)/C=C/c1c[nH]c(=O)[nH]c1=O
inactive: dose: 100.0 mg/kg/injection, schedule: Q01DX009 (ip), vehicle: saline 109 % of control | dose: 100.0 mg/kg/injection, schedule: Q04DX003 (ip), vehicle: saline 103 % of control | dose: 200.0 mg/kg/injection, schedule: Q01DX009 (ip), vehicle: saline 111 % of control | dose: 200.0 mg/kg/injection, schedule: Q04DX003 (ip), vehicle: saline 97 % of control | dose: 400.0 mg/kg/injection, schedule: Q01DX009 (ip), vehicle: saline 105 % of control | dose: 400.0 mg/kg/injection, schedule: Q04DX003 (ip), vehicle: saline 94 % of control

O=[N+]([O-])C=C([SH2+])[SH2+].O=[N+]([O-])C=C([SH2+])[SH2+].[Ni+2].c1ccc(C[P+](c2ccccc2)(c2ccccc2)c2ccccc2)cc1
inactive: dose: 75.0 mg/kg/injection, schedule: Q04DX003 (ip), vehicle: saline 101 % of control | dose: 150.0 mg/kg/injection, schedule: Q04DX003 (ip), vehicle: saline 101 % of control

CCCn1/c(=N\N=O)sc2ccccc21
inactive: [1] 93 % of control | [2] 95 % of control | [9] 92 % of control

O=C(N/N=C/c1ccc2c(c1)OCO2)c1ccncc1
inactive: [3] 102 % of control | [5] 94 % of control | [7] 104 % of control

O=C(NN1CCOCC1)c1ccc([N+](=O)[O-])s1
inactive: dose: 50.0 mg/kg/injection, schedule: Q01DX005 (ip), vehicle: saline 98 % of control | dose: 100.0 mg/kg/injection, schedule: Q01DX005 (ip), vehicle: saline 102 % of control | dose: 200.0 mg/kg/injection, schedule: Q01DX005 (ip), vehicle: saline 98 % of control

O=C(c1ccccc1)c1nc2ccccc2nc1-c1ccccc1
inactive: [1] 92 % of control | [2] 92 % of control | [9] 89 % of control

Cc1c2ccccc2[n+](C)c2ccc3ccccc3c12
inactive: dose: 75.0 mg/kg/injection, schedule: Q01DX001 (ip), vehicle: carboxymethylcellulose (CMC) 94 % of control | dose: 150.0 mg/kg/injection, schedule: Q01DX001 (ip), vehicle: carboxymethylcellulose (CMC) 94 % of control | dose: 300.0 mg/kg/injection, schedule: Q01DX001 (ip), vehicle: carboxymethylcellulose (CMC) 96 % of control

O=C(Nc1ccccc1F)Nc1ccccc1Cl
inactive: dose: 25.0 mg/kg/injection, schedule: Q01DX009 (ip), vehicle: Klucel (hydroxypropylcellulose) (HPC) 95 % of control | dose: 50.0 mg/kg/injection, schedule: Q01DX009 (ip), vehicle: Klucel (hydroxypropylcellulose) (HPC) 104 % of control | dose: 100.0 mg/kg/injection, schedule: Q01DX009 (ip), vehicle: Klucel (hydroxypropylcellulose) (HPC) 96 % of control | [1] 87 % of control | dose: 200.0 mg/kg/injection, schedule: Q01DX009 (ip), vehicle: Klucel (hydroxypropylcellulose) (HPC) 93 % of control and 92 % of control | [2] 89 % of control | dose: 400.0 mg/kg/injection, schedule: Q01DX009 (ip), vehicle: Klucel (hydroxypropylcellulose) (HPC) 95 % of control and 91 % of control

O=c1[nH]c(-c2ccc(O)cc2)nc2[nH]ncc12
inactive: [1] 88 % of control | [2] 86 % of control

Cc1cc(Br)c2ccccc2c1NS(=O)(=O)c1ccccc1
inactive: [3] 100 % of control | [4] 109 % of control | [5] 90 % of control | [6] 100 % of control | [7] 92 % of control | [8] 105 % of control
